Drawing on ChEMBL document CHEMBL4251612, “Naturally occurring Diels-Alder-type adducts from Morus nigra as potent inhibitors of Mycobacterium tuberculosis protein tyrosine phosphatase B” (Eur J Med Chem, 2018), this text covers IC50 and Ki for 7 compounds.

Assay [1] concerns the target T1, Phosphotyrosine protein phosphatase (Mycobacterium tuberculosis, UniProt A0A045ISB3).
T1 sequence (A0A045ISB3 whole entry): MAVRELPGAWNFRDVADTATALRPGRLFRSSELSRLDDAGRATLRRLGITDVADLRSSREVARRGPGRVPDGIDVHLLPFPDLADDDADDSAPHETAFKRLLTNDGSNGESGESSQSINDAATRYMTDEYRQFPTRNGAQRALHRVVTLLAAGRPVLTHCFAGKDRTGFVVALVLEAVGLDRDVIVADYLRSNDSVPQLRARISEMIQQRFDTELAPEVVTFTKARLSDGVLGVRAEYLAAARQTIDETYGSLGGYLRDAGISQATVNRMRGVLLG
The experiment in a line: Inhibition of Mycobacterium tuberculosis PtpB using p-nitrophenyl phosphate as substrate preincubated for 10 mins followed by substrate addition measured every minute for 10 mins by UV-VIS spectrophotometric analysis.

The target in assay [2] is T2, Low molecular weight protein-tyrosine phosphatase A (Mycobacterium tuberculosis, UniProt P9WIA1).
T2 sequence (P9WIA1 whole entry): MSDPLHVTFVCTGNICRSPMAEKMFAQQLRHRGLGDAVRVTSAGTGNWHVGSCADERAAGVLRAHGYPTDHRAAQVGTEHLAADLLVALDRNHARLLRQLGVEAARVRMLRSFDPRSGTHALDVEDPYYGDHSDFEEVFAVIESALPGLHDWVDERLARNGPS
The experiment in a line: Inhibition of Mycobacterium tuberculosis PtpA using p-nitrophenyl phosphate as substrate preincubated for 10 mins followed by substrate addition measured every minute for 10 mins by UV-VIS spectrophotometric analysis.

Assay [3] concerns the target T3, Tyrosine-protein phosphatase non-receptor type 1 (Homo sapiens, UniProt P18031).
T3 sequence (P18031 whole entry): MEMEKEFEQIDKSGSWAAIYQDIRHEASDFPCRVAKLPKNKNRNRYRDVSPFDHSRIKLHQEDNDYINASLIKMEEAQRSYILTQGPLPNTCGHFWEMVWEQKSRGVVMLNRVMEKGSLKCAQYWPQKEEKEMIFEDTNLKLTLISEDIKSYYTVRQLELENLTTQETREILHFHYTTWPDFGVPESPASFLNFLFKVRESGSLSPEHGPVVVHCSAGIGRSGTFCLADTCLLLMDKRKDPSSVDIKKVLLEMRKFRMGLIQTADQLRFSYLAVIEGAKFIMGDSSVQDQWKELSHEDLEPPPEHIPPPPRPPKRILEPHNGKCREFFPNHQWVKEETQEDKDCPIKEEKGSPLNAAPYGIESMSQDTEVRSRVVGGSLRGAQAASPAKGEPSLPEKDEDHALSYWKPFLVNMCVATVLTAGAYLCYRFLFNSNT
The experiment in a line: Inhibition of human PTP1B using p-nitrophenyl phosphate as substrate preincubated for 10 mins followed by substrate addition measured every minute for 10 mins by UV-VIS spectrophotometric analysis.

For assay [4], the target named is T4, Tyrosine-protein phosphatase non-receptor type 22 (Homo sapiens, UniProt Q9Y2R2).
T4 sequence (Q9Y2R2 whole entry): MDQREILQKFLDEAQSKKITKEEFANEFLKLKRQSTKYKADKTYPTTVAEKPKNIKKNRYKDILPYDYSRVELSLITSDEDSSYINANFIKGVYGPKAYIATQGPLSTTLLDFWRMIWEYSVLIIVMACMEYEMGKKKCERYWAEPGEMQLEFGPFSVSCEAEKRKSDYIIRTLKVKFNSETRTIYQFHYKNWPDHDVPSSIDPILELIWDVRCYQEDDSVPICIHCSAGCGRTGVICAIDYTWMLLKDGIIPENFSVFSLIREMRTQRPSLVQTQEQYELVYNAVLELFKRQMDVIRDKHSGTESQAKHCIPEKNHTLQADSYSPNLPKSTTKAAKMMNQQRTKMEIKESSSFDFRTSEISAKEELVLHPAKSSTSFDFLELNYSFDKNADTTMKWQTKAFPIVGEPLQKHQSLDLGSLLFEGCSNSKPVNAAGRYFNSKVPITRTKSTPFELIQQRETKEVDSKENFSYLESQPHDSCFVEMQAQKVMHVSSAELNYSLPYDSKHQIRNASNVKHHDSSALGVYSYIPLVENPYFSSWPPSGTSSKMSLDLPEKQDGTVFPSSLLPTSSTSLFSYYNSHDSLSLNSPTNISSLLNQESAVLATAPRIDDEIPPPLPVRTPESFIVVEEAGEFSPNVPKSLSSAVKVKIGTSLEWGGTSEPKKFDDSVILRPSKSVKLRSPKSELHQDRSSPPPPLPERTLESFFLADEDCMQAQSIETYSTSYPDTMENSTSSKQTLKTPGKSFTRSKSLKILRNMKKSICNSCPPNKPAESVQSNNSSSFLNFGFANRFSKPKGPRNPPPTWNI
The experiment in a line: Inhibition of LYP (unknown origin) using p-nitrophenyl phosphate as substrate preincubated for 10 mins followed by substrate addition measured every minute for 10 mins by UV-VIS spectrophotometric analysis.

Assay [5] has as its target T5, Tyrosine-protein phosphatase non-receptor type 12 (Homo sapiens, UniProt Q05209).
T5 sequence (Q05209 whole entry): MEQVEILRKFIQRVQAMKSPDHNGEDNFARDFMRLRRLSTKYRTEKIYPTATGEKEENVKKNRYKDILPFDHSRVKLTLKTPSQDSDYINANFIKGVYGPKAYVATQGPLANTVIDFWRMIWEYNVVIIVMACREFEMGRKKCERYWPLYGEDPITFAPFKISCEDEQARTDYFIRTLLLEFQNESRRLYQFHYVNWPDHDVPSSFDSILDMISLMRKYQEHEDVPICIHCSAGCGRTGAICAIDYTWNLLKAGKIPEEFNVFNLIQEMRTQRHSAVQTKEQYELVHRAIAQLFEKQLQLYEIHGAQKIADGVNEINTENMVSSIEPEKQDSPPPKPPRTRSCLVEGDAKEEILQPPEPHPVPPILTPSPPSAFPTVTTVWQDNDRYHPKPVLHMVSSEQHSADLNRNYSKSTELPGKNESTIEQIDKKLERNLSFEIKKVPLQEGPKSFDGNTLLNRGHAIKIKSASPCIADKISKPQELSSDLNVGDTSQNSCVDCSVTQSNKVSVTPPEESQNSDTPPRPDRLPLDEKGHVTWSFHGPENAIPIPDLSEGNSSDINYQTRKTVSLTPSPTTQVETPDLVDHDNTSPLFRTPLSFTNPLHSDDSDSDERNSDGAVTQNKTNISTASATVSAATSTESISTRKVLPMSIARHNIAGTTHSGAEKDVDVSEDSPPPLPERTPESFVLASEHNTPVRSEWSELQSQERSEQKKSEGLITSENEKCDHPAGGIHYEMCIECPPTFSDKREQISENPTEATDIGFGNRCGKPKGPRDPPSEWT
The experiment in a line: Inhibition of PTP-PEST (unknown origin) using p-nitrophenyl phosphate as substrate preincubated for 10 mins followed by substrate addition measured every minute for 10 mins by UV-VIS spectrophotometric analysis.

`CC(C)=CCc1c(O)ccc(C(=O)[C@H]2[C@@H](c3c(O)cc(-c4cc5ccc(O)cc5o4)cc3O)C=C(C)C[C@@H]2c2ccc(O)cc2O)c1O` [CHALCOMORACIN]: the IC50 in assay [1] worked out at 1.43 µM; in assay [2], 2.43 µM; in assay [3] it was 1.94 µM; in assay [4] it was 7.29 µM; in assay [5], 8.52 µM.

In the case of `O=c1cc(-c2ccc(O)cc2O)oc2cc(O)cc(O)c12` [NORARTOCARPETIN], the IC50 in assay [1] stood at 1.2 µM; in assay [2] it was 12 µM; in assay [3] it was 5.18 µM; in assay [4], 30.3 µM; in assay [5], 20.9 µM.

In assay [1], `CC(C)=CCc1c(O)ccc(C(=O)[C@H]2[C@@H](c3c(O)cc(/C=C/c4ccc(O)cc4O)cc3O)C=C(C)C[C@@H]2c2ccc(O)cc2O)c1O` had an IC50 of 1.9 µM and a Ki of 1.6 µM.

For the compound `CC1=C[C@@H](c2c(O)ccc([C@@H]3CC(=O)c4c(O)cc(O)cc4O3)c2O)[C@H](C(=O)c2ccc(O)cc2O)[C@@H](c2ccc(O)cc2O)C1`, the IC50 in assay [1] was 4.7 µM; in assay [2], 14 µM; in assay [3], 7.98 µM; in assay [4], 12.1 µM; in assay [5], 18.6 µM.

With `CC(C)=CCc1c(O)cc2c(c1O)C(=O)C[C@@H](c1cc3c(cc1O)OC(C)(C)C=C3)O2` [CUDRAFLAVANONE A], the IC50 in assay [1] was 5.07 µM; in assay [2], 2.74 µM; in assay [3], 4.31 µM; in assay [4], 9.54 µM; in assay [5], 18.6 µM.

Take `CC(C)=CCc1c(-c2ccc(O)cc2O)oc2c3c(cc(O)c2c1=O)OC(C)(C)C=C3` [MORUSIN]: the IC50 in assay [1] is 5.26 µM; in assay [2], 4.65 µM; in assay [3] it was 10.3 µM; in assay [4] it was 15 µM; in assay [5], more than 100 µM.

For `Oc1cc(O)cc(/C=C/c2ccc(O)cc2O)c1` [OXYRESVERATROL], the IC50 was 67.2 µM in assay [2], 27.1 µM in assay [3], 31.5 µM in assay [4] and more than 100 µM in assay [5].

The IC50 is the midpoint of a concentration-inhibition curve. Usually Ki stands for the equilibrium dissociation constant of an inhibitor or competing ligand from its target. Higher therefore signals a looser hold on the target.
